Measurements: patent publication US10246453B2, “Benzenesulfonamide compounds and their use as therapeutic agents” (Xenon Pharmaceuticals Inc., priority 2016, dated 2019)
Counter-ions that a name gives are not always drawn. Like-named read-outs stand apart in the source and are kept apart here.

Tests used:
NaV1.5 [1] = biological target: T1, NaV1.5 (Homo sapiens (Human), UniProt Q14524); experiment: cell-based
NaV1.6 [2] = biological target: T2, NaV1.6 (Homo sapiens (Human), UniProt Q9UQD0); experiment: Sodium Influx Assay (Flux), NaV1.6
T2 sequence (Q9UQD0 whole entry): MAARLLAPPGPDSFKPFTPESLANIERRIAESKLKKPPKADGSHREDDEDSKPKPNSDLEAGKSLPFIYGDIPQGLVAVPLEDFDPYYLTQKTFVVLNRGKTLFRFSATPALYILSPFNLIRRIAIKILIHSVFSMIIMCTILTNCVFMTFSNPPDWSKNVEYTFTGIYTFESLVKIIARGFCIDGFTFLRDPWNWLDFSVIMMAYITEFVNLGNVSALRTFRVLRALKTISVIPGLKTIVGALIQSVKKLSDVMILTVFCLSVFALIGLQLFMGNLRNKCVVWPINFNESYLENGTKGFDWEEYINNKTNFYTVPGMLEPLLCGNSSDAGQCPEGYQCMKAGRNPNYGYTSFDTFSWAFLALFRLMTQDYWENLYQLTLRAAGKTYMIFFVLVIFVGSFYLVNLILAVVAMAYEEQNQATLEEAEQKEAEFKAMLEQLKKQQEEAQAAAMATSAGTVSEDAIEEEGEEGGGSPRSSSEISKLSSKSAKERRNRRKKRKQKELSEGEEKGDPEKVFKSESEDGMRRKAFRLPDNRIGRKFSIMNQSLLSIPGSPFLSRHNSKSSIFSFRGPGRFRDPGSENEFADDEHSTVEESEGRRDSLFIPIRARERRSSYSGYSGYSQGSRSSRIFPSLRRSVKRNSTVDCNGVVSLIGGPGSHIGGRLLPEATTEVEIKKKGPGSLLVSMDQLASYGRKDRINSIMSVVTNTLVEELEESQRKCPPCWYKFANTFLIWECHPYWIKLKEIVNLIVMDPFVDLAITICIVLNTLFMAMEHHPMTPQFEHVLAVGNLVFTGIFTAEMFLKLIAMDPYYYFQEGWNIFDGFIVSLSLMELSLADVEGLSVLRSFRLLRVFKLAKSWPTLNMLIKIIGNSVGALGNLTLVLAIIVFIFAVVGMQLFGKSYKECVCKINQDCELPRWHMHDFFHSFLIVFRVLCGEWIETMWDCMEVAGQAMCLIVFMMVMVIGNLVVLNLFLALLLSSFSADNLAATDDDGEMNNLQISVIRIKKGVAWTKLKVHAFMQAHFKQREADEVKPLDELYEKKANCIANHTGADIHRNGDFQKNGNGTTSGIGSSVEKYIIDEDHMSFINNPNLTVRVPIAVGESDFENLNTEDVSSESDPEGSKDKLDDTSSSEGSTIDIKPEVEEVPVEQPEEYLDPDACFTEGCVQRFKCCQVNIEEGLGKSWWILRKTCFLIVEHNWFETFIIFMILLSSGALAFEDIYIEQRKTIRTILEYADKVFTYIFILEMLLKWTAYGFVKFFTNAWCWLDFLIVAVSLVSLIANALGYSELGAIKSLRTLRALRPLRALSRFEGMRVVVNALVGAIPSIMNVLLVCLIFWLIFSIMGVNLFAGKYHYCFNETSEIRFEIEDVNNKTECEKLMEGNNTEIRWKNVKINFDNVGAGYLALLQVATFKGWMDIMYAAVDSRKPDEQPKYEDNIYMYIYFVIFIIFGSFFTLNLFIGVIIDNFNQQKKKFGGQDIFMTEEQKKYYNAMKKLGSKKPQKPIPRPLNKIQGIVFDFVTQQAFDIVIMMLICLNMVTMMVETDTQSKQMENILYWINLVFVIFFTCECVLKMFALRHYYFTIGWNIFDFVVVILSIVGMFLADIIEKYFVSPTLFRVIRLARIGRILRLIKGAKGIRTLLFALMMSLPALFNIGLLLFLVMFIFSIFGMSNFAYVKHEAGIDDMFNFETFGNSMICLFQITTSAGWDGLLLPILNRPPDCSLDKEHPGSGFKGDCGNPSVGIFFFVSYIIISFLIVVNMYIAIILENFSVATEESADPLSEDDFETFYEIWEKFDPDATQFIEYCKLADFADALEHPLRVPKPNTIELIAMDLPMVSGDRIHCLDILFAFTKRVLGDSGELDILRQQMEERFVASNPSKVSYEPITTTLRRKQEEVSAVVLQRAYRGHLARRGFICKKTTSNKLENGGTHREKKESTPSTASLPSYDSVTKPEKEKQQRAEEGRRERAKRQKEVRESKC

NaV1.1 [3] = biological target: T3, NaV1.1 (Homo sapiens (Human), UniProt P35498); experiment: Sodium Influx Assay (Flux), NaV1.1; type: cell-based; conditions: Trex HEK293 cells, ANG2 dye; arithmetic mean
NaV1.6 [4] = biological target: T2, NaV1.6; experiment: Electrophysiological Assay (EP), patch voltage clamp, NaV1.6; type: cell-based; conditions: HEK-293 cells, whole-cell patch clamp, inactivated state; arithmetic mean
NaV1.5 [5] = biological target: T1, NaV1.5
NaV1.1 [6] = biological target: T3, NaV1.1; experiment: Electrophysiological Assay (EP), patch voltage clamp, NaV1.1; type: cell-based; conditions: HEK-293 cells, whole-cell patch clamp, inactivated state; arithmetic mean
NaV1.5 [7] = biological target: T1, NaV1.5; experiment: Sodium Influx Assay (Flux), NaV1.5; conditions: read-out: Flux NaV1.5 IC50; Trex HEK293 cells, ANG2 dye; arithmetic mean
[8] = read-out: Flux NaV1.6 IC50, Trex HEK293 cells, ANG2 dye, arithmetic mean

T1 sequence (Q14524 other isoform, or with tags, fused parts or gaps): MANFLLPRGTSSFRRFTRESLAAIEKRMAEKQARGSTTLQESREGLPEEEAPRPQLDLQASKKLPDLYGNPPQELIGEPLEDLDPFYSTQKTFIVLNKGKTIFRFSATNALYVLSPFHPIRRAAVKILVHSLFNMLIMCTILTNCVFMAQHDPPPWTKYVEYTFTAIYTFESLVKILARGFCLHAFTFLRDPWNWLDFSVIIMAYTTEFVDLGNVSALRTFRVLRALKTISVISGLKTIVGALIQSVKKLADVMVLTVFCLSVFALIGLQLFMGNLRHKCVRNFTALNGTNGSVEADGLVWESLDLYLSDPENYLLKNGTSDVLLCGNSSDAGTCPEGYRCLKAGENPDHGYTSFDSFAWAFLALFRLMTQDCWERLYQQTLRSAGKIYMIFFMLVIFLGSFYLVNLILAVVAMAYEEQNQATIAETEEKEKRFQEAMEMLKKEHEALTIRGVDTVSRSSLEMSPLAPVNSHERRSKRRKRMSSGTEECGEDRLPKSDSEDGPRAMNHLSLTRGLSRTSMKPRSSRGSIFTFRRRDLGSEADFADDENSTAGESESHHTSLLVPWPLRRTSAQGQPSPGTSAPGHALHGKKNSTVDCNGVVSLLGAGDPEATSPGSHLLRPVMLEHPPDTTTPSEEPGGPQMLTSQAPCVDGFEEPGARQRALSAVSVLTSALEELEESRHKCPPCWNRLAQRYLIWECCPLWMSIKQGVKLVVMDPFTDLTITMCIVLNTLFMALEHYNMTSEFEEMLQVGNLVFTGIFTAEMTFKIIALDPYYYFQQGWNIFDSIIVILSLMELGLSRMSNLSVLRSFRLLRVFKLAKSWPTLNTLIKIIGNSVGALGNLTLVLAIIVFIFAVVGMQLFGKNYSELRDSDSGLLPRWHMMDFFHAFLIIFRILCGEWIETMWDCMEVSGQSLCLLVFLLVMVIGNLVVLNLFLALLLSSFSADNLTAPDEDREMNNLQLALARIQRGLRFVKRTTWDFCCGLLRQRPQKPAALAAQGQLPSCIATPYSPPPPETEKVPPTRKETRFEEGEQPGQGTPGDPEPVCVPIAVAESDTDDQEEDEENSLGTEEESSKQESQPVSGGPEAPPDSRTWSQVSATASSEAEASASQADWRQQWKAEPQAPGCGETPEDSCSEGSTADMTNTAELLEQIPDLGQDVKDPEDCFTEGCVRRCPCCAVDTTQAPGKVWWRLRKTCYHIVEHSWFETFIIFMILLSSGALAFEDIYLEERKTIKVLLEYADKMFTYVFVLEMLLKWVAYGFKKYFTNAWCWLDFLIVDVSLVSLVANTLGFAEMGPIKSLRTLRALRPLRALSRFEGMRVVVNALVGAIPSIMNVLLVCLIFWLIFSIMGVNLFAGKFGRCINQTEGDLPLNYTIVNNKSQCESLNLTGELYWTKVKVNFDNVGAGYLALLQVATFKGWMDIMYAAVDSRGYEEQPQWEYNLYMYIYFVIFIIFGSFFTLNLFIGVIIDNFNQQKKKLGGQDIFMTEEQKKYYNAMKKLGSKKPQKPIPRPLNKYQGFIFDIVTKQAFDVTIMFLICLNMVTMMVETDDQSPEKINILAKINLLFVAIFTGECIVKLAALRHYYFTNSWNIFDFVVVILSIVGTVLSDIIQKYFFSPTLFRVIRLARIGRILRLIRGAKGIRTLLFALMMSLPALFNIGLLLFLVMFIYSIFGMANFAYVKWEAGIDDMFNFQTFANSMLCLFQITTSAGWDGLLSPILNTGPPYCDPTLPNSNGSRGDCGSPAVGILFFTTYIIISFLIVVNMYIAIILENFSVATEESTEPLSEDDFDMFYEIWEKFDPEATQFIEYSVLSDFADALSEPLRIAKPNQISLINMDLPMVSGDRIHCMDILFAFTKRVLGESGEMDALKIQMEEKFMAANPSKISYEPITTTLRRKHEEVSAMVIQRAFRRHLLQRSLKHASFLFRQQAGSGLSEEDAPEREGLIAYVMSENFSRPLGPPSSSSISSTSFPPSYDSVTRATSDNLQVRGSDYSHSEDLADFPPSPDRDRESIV

| SMILES | IC50 (NaV1.5 [1]) | IC50 (NaV1.6 [2]) | IC50 (NaV1.1 [3]) | IC50 (NaV1.6 [4]) | IC50 (NaV1.6 [2]; [8]) | IC50 (NaV1.5 [5]) | IC50 (NaV1.1 [6]) | IC50 (NaV1.5 [7]) |
| --- | --- | --- | --- | --- | --- | --- | --- | --- |
| Cc1c(OC2(C)CCN(Cc3ccccc3)C2)cc(F)c(S(=O)(=O)Nc2nccs2)c1F (racemic) [Example 228, rac-4-((1-benzyl-3-methylpyrrolidin-3-yl)oxy)-2,6-difluoro-3-methyl-N-(thiazol-2-yl)benzenesulfonamide 2,2,2-trifluoroacetate] | 23.1 µM | 0.031 µM | 5.27 µM |  |  |  |  |  |
| C[C@H](c1cc(C2CC2)ccc1F)N1CCC(Oc2ccc(S(=O)(=O)Nc3cscn3)cc2Cl)CC1 (stereo in doubt) [Example 320] | 4.74 µM | 3.24 µM | 4.25 µM |  |  |  |  |  |
| O=S(=O)(Nc1nccs1)c1cc(Cl)c(O[C@@H]2C[C@H]3CC[C@@H](C2)N3Cc2ccccc2)cc1F [Example 17, 4-(((1R,3s,5S)-8-benzyl-8-azabicyclo[3.2.1]octan-3-yl)oxy)-5-chloro-2-fluoro-N-(thiazol-2-yl)benzenesulfonamide] |  |  | > 30 µM | 0.155 µM | 0.392 µM | > 30 µM | > 10 µM |  |
| CN(c1cc(F)c(S(=O)(=O)Nc2nccs2)cc1Cl)C1CCN(Cc2ccccc2)CC1 [Example 53, 4-((1-benzylpiperidin-4-yl)(methyl)amino)-5-chloro-2-fluoro-N-(thiazol-2-yl)benzenesulfonamide] |  |  | 7.41 µM |  | 0.601 µM | 24.5 µM |  |  |
| C[C@@H](c1ccccc1)N1CCC(Oc2ccc(S(=O)(=O)Nc3nccs3)cc2Cl)CC1 [Example 58, (S)-3-chloro-4-((1-(1-phenylethyl)piperidin-4-yl)oxy)-N-(thiazol-2-yl)benzenesulfonamide 2,2,2-trifluoroacetate] | 5.58 µM | 0.402 µM |  | 0.093 µM |  |  |  |  |
| CN(c1cc(F)c(S(=O)(=O)Nc2cscn2)cc1Cl)[C@H]1CCN(Cc2cnn(Cc3ccccc3)c2)C1 [Example 165, (S)-4-((1-((1-benzyl-1H-pyrazol-4-yl)methyl)pyrrolidin-3-yl)(methyl)amino)-5-chloro-2-fluoro-N-(thiazol-4-yl)benzene-sulfonamide formate] | 6.97 µM | 3.34 µM | 4.61 µM |  |  |  |  |  |
| CN(c1cc(F)c(S(=O)(=O)Nc2cscn2)cc1Cl)[C@H]1CCN(Cc2cccc3cccnc23)C1 [Example 170, (S)-5-chloro-2-fluoro-4-(methyl(1-(quinolin-8-ylmethyl)-pyrrolidin-3-yl)amino)-N-(thiazol-4-yl)benzene-sulfonamide formate] | 21.2 µM | 1.61 µM | 11.3 µM |  |  |  |  |  |
| COc1cccnc1CN1CC[C@H](N(C)c2cc(F)c(S(=O)(=O)Nc3cscn3)cc2Cl)C1 [Example 176, (S)-5-chloro-2-fluoro-4-((1-((3-methoxypyridin-2-yl)methyl)pyrrolidin-3-yl)(methyl)amino)-N-(thiazol-4-yl)benzene-sulfonamide formate] | > 30 µM | 0.74 µM | > 30 µM |  |  |  |  |  |
| CN(c1cc(F)c(S(=O)(=O)Nc2cscn2)cc1Cl)[C@H]1CCN(CCc2ccccc2)C1 [Example 179, (S)-5-chloro-2-fluoro-4-(methyl(1-phenethylpyrrolidin-3-yl)amino)-N-(thiazol-4-yl)benzene-sulfonamide formate] | 20.4 µM | 4.89 µM | 6.91 µM |  |  |  |  |  |
| Cc1ccc(CN2CC[C@H](N(C)c3cc(F)c(S(=O)(=O)Nc4cscn4)cc3Cl)C2)s1 [Example 189, (S)-5-chloro-2-fluoro-4-(methyl(1-((5-methylthiophen-2-yl)methyl)pyrrolidin-3-yl)amino)-N-(thiazol-4-yl)benzene-sulfonamide formate] | 16.6 µM | 1.87 µM | 7.38 µM |  |  |  |  |  |
| CN(c1cc(F)c(S(=O)(=O)Nc2cscn2)cc1Cl)[C@H]1CCN(Cc2ccc3[nH]ccc3c2)C1 [Example 190, (S)-4-((1-((1H-indol-5-yl)methyl)pyrrolidin-3-yl)(methyl)amino)-5-chloro-2-fluoro-N-(thiazol-4-yl)benzene-sulfonamide formate] | 8.25 µM | 2.33 µM | 5.17 µM |  |  |  |  |  |
| CCN(c1cc(F)c(S(=O)(=O)Nc2cscn2)cc1Cl)[C@H]1CCN(Cc2ccccc2)C1 [Example 263, (S)-4-((1-benzylpyrrolidin-3-yl)(ethyl)amino)-5-chloro-2-fluoro-N-(thiazol-4-yl)benzenesulfonamide] |  |  | 4.44 µM | 3.81 µM | 3.1 µM |  | > 10 µM | 19.1 µM |
| Cc1c(O[C@H]2CCN(Cc3ccccc3)C2)cc(F)c(S(=O)(=O)Nc2cscn2)c1F [Example 269, (S)-4-((1-benzylpyrrolidin-3-yl)oxy)-2,6-difluoro-3-methyl-N-(thiazol-4-yl)benzenesulfonamide hydrochloride] |  |  | > 30 µM | 0.329 µM | 0.647 µM |  | > 10 µM | > 30 µM |
| Cc1c(N(C)[C@H]2CCN(Cc3ccccc3)C2)cc(F)c(S(=O)(=O)Nc2ccsn2)c1F [Example 279, (S)-4-((1-benzylpyrrolidin-3-yl)(methyl)amino)-2,6-difluoro-N-(isothiazol-3-yl)-3-methylbenzenesulfonamide 2,2,2-trifluoroacetate] |  |  | 21.2 µM | 0.011 µM | 0.064 µM |  | > 10 µM | > 30 µM |
| C[C@H](c1ccccc1)N1CCC(N(C)c2cc(F)c(S(=O)(=O)Nc3cscn3)cc2Cl)CC1 [Example 280, (R)-5-chloro-2-fluoro-4-(methyl(1-(1-phenylethyl)piperidin-4-yl)amino)-N-(thiazol-4-yl)benzenesulfonamide formate] |  |  | 17.4 µM |  | 0.228 µM | 27.1 µM |  |  |
| Cc1cc(S(=O)(=O)Nc2cscn2)c(F)cc1N(C)C1CCN([C@H](C)c2ccccc2)CC1 [Example 281, (R)-2-fluoro-5-methyl-4-(methyl(1-(1-phenylethyl)piperidin-4-yl)amino)-N-(thiazol-4-yl)benzenesulfonamide 2,2,2-trifluoroacetate] |  |  | 14.6 µM |  | 0.021 µM | 13.1 µM |  |  |
| C[C@H](c1ccccc1)N1CCC(Oc2cc(F)c(S(=O)(=O)Nc3cscn3)c(F)c2Cl)CC1 [Example 283, (R)-3-chloro-2,6-difluoro-4-((1-(1-phenylethyl)piperidin-4-yl)oxy)-N-(thiazol-4-yl)benzenesulfonamide 2,2,2-trifluoroacetate formate] |  |  | > 30 µM | 0.037 µM | 0.067 µM |  | > 10 µM | > 30 µM |
| Cc1cccc(CN2CC[C@H](N(C)c3cc(F)c(S(=O)(=O)Nc4ncns4)c(F)c3C)C2)n1 [Example 296, 2,2,2-trifluoroacetate] | > 30 µM |  | > 30 µM | 0.002 µM | 0.01 µM |  |  |  |
| Cc1cccc(CN2CC[C@H](N(C)c3cc(F)c(S(=O)(=O)Nc4ncns4)c(F)c3Cl)C2)n1 [Example 297, (S)-3-chloro-2,6-difluoro-4-(methyl (1-((6-methylpyridin-2-yl)methyl)pyrrolidin-3-yl)amino)-N-(1,2,4-thiadiazol-5-yl)benzenesulfonamide 2,2,2-trifluoroacetate] | > 30 µM | 0.062 µM | > 30 µM | 0.012 µM |  |  |  |  |
| C[C@H](c1ccccc1)N1CCC(Oc2ccc(S(=O)(=O)Nc3ccncn3)cc2Cl)CC1 [Example 300, (R)-3-chloro-4-((1-(1-phenylethyl)piperidin-4-yl)oxy)-N-(pyrimidin-4-yl)benzenesulfonamide] |  |  | > 30 µM | 0.972 µM | 1.07 µM |  | > 10 µM | > 30 µM |
| C[C@H](c1cc(Cl)ccc1F)N1CCC(Oc2ccc(S(=O)(=O)Nc3cscn3)cc2Cl)CC1 [Example 315, (R)-3-chloro-4-((1-(1-(5-chloro-2-fluorophenyl)ethyl)piperidin-4-yl)oxy)-N-(thiazol-4-yl)benzenesulfonamide] |  |  | 5.62 µM | 0.377 µM | 1.07 µM |  | 4.25 µM | 6.38 µM |
| O=S(=O)(Nc1cscn1)c1ccc(O[C@@H]2C[C@H]3CC[C@@H](C2)N3Cc2cc(Cl)ccc2F)c(Cl)c1 [Example 316, 3-chloro-4-(((1R,3s,5S)-8-(5-chloro-2-fluorobenzyl)-8-azabicyclo[3.2.1]octan-3-yl)oxy)-N-(thiazol-4-yl)benzenesulfonamide formate] |  |  | 2.8 µM |  | 3.9 µM | 5.09 µM |  |  |
| O=S(=O)(Nc1cscn1)c1ccc(O[C@@H]2C[C@H]3CC[C@@H](C2)N3Cc2ccc(F)c(Cl)c2)c(Cl)c1 [Example 319, 3-chloro-4-(((1R,3s,5S)-8-(3-chloro-4-fluorobenzyl)-8-azabicyclo[3.2.1]octan-3-yl)oxy)-N-(thiazol-4-yl)benzenesulfonamide formate] |  |  | 3.69 µM |  | 3.32 µM | 2.48 µM |  |  |
| Cc1c(N(C)[C@H]2CCN(Cc3ccccc3)C2)ccc(S(=O)(=O)Nc2cscn2)c1F [Example 321, (S)-4-((1-benzylpyrrolidin-3-yl)(methyl)amino)-2-fluoro-3-methyl-N-(thiazol-4-yl)benzenesulfonamide 2,2,2-trifluoroacetate] |  |  | 12.3 µM | 0.137 µM | 0.354 µM |  | > 10 µM | 21.4 µM |
| CN(c1ccc(S(=O)(=O)Nc2ncns2)cc1Cl)[C@H]1CCN(Cc2cc(F)cc(F)c2)C1 [Example 327, (S)-3-chloro-4-((1-(3,5-difluorobenzyl)pyrrolidin-3-yl)(methyl)amino)-N-(1,2,4-thiadiazol-5-yl)benzenesulfonamide formate] | > 30 µM | 1.04 µM | 17.3 µM |  |  |  |  |  |
